Our source for the IC50 values is BindingDB's records for doi:10.1016/j.bmcl.2012.02.027 (Memorial Sloan-Kettering Cancer Center, 2012).

Each structure is given as a SMILES string.

In this test the target is Presenilin-1 (Homo sapiens, UniProt P49768). Put plainly: Inhibition of gamma-secretase in cell-free human HeLa membrane assessed as amyloid beta-42 production using APP as substrate.

On to `CC(C)C[C@H](NC(=O)[C@H](Cc1ccccc1)C[C@@H](O)[C@H](Cc1ccccc1)NC(=O)OC(C)(C)C)C(=O)N[C@@H](Cc1ccc(C(=O)c2ccccc2)cc1)C(=O)NCCCCCNC(=O)CCCC[C@@H]1SC[C@@H]2NC(=O)N[C@@H]21`, for which the IC50 worked out at 0.3 nM.

In general, IC50 refers to the concentration needed to halve the response being measured.
